Assay results from patent publication US20260191196A1, “COMPOSITIONS AND METHODS FOR IMPROVING SOIL MICROBIAL POPULATIONS” (SYNGENTA CROP PROTECTION AG, priority 2022, published 2026).

Tests used:
[1] = tested on: soil bacterial community; assay: Plant associated soil microbiome: bacterial community by 16S rRNA gene amplicon sequencing; type: in vivo, tomato plants
Protocol: (§1) To detect microbial community modifications in the soil microbiome associated with the cyclobutrifluram treatment against root knot nematodes, PCR amplification and successive high-throughput sequencing of bacterial and fungal taxonomical marker genes (the small-subunit ribosomal RNA gene (16S) and the ribosomal internal transcribed spacers (ITS) respectively) were performed on plant-associated soil samples.
Bacterial ASVs were detected by 16SrRNA gene amplicon sequencing with taxonomy assignment at ASV level. The relative abundance in Control and Cyclobutrifluram treated samples and, when statistically significative (Deseq2, p=0.1), the relative abundance variation is reported in Table 1a, reporting bacterial ASVs detected by 16S rRNA gene amplicon sequencing with taxonomy assignment at ASV level. Here is reported the relative abundance in Control and Cyclobutrifluram treated samples and, when statistically significative (Deseq2, p=0.1), the relative abundance variation. Shown are the bacteria with an abundance of above 0.01%.

[2] = tested on: arbuscular mycorrhizae fungi; assay: Mycorrhization in soybean roots after seed treatment; type: in vivo
Protocol: Soybeans of variety Toliman were treated with 0.15 mg ai/seed of cyclobutrifluram and analogues, and planted in 1.5 L pots of 0-3 mm sieved soil. The seeds were inoculated with Bradyrhizobium japonicum using a commercially available product for soybeans.
In a first series, for each active ingredient tested, 15 replicate pots were sowed. In each pot, 3 seeds were sowed. After germination, 2 seedling was removed from each pot to a final number of 1 plant per pot. Each pot was inoculated with a small amount of a mycorrhizal inoculant (Blend A, commercially available from Symbiom, Czech Republic). The plants were grown in a greenhouse for 81 days under the following conditions: Humidity at 45-64%, Temperature of 22° C. to 24° C., in a 16/8 hour day/night cycle. In a further test series, Soybeans seeds treated as outlined above were then planted in 1 Lpots of 0-3 mm sieved soil. For each active ingredient, 8 replicate pots were sowed, whereby in each pot, 3 seeds were sowed. After germination, 2 seedlings were removed from each pot to a final number of 1 plant per pot.
The plants were then grown in a growth chamber for 42 days with the following conditions: Temperature of 20° C. and with a 12/12 hour day/night.
After harvest, the percent mycorrhization was quantified using the methods of McGonigle et al. (T. P. McGONIGLE, M. H. MILLER and D. G. EVANS et al., “A new method which gives an objective measure of colonization of roots by vesicular-arbuscular mycorrhizal fungi”. New Phytol. Vol. 115 (3): 495-501.).

[3] = tested on: bacteria (16S) and fungi (ITS) communities; assay: Potato field trial: soil microbiome community and biodiversity; type: in vivo, potato (Solanum tuberculosum L.); conditions: locations A and B, T0-T3
Protocol: In this experiment, assuming that biodiversity can be measured by the taxonomic richness and abundance of each taxon, the differences between treatments are determined and their effect on populations and beneficial species over time is verified. This leads to testing two hypotheses. Firstly, there is an impact of cyclobutrifluram applications on microbial diversity. Secondly, the use of cyclobutrifluram improves beneficial microbial diversity over time. These hypotheses were tested in two potato farms in the USA.
The experiment was carried out in two potato (Solanum tuberculosum L.) fields located in two test locations in Louisiana, USA, described as locations A and B in Table 2. In each experimental field, three products were tested in an area of 10 m^2 (Table 3) and three replicates per product were established by complete block randomized. To evaluate the effects on the microbiome a “Check” plot (untreated) was established. In addition, fluopyram was employed as a comparative example. Fluopyram is a widely used fungicide and nematicide, and represents the industry standard herein.
To analyse the microbial biodiversity, three soil samples were taken per treatment and each sample consisted of soil collected from three different points within the plots. In this way, the effect of soil variability was minimized, since there were nine samples per treatment. […]
as §1, with “As set out above, to” for “To”, “treatment,” for “treatment against root knot nematodes,”, “samples. An exploratory data analysis was conducted to describe the microbial biodiversity and the behaviour of the percentage of the abundance of species under the evaluated factors. […]” for “samples.”

[4] = Cyclobutrifluram treated plant-associated soil

O=C(N[C@@H]1CC[C@@H]1c1ccc(Cl)cc1Cl)c1cccnc1C(F)(F)F (racemic) [Cyclobutrifluram, cyclobutrifluram]
relative abundance variation vs Control, Acidobacteria-6 (ASV, Class) ([1]; 1st Acidobacteria-6 ASV (r9), Deseq2, p=0.1): +0.050%
relative abundance variation vs Control, Acidobacteria-6 (ASV, Class) ([1]; 2nd Acidobacteria-6 ASV (r16), Deseq2, p=0.1): +0.051%
relative abundance variation vs Control, Acidobacteria-6 (ASV, Class) ([1]; 3rd Acidobacteria-6 ASV (r18), Deseq2, p=0.1): +0.027%
relative abundance variation vs Control, Acidobacteria-6 (ASV, Class) ([1]; 4th Acidobacteria-6 ASV (r19), Deseq2, p=0.1): +0.028%
relative abundance variation vs Control, Acidobacteria-6 (ASV, Class) ([1]; 5th Acidobacteria-6 ASV (r22), Deseq2, p=0.1): +0.071%
relative abundance variation vs Control, Acidobacteria-6 (ASV, Class) ([1]; 6th Acidobacteria-6 ASV (r24), Deseq2, p=0.1): +0.030%
modifications in the bacterial diversity ([1]; 16S rRNA gene amplicon sequencing): no modifications
Relative abundance, Gaiella (ASV, Genus) [1, 4]: 0.065%
Relative abundance, Gemmatimonadetes (ASV, Class) [1, 4]: 0.071%
Relative abundance, Microlunatus (ASV, Genus) [1, 4]: 0.032%
Relative abundance, Myxococcales (ASV, Order) [1, 4]: 0.033%
Relative abundance, PK29 (ASV, Order) [1, 4]: 0.021%
Relative abundance, Planctomyces (ASV, Genus) [1, 4]: 0.016%
Relative abundance, Rhizobiales (ASV, Order) [1, 4]: 0.025%
Relative abundance, Streptosporangiaceae (ASV, Family) [1, 4]: 0.020%
Relative abundance, Acidobacteria-6 (ASV, Class) ([1]; Cyclobutrifluram treated plant-associated soil, 1st Acidobacteria-6 ASV (r9)): 0.050%
Relative abundance, Acidobacteria-6 (ASV, Class) ([1]; Cyclobutrifluram treated plant-associated soil, 2nd Acidobacteria-6 ASV (r16)): 0.051%
Relative abundance, Acidobacteria-6 (ASV, Class) ([1]; Cyclobutrifluram treated plant-associated soil, 3rd Acidobacteria-6 ASV (r18)): 0.027%
Relative abundance, Acidobacteria-6 (ASV, Class) ([1]; Cyclobutrifluram treated plant-associated soil, 4th Acidobacteria-6 ASV (r19)): 0.028%
Relative abundance, Acidobacteria-6 (ASV, Class) ([1]; Cyclobutrifluram treated plant-associated soil, 5th Acidobacteria-6 ASV (r22)): 0.084%
Relative abundance, Acidobacteria-6 (ASV, Class) ([1]; Cyclobutrifluram treated plant-associated soil, 6th Acidobacteria-6 ASV (r24)): 0.030%
relative abundance variation vs Control, Gaiella (ASV, Genus) ([1]; Deseq2, p=0.1): +0.065%
relative abundance variation vs Control, Gemmatimonadetes (ASV, Class) ([1]; Deseq2, p=0.1): +0.071%
relative abundance variation vs Control, Microlunatus (ASV, Genus) ([1]; Deseq2, p=0.1): +0.032%
relative abundance variation vs Control, Myxococcales (ASV, Order) ([1]; Deseq2, p=0.1): +0.033%
relative abundance variation vs Control, PK29 (ASV, Order) ([1]; Deseq2, p=0.1): +0.021%
relative abundance variation vs Control, Planctomyces (ASV, Genus) ([1]; Deseq2, p=0.1): +0.016%
relative abundance variation vs Control, Rhizobiales (ASV, Order) ([1]; Deseq2, p=0.1): +0.025%
relative abundance variation vs Control, Streptosporangiaceae (ASV, Family) ([1]; Deseq2, p=0.1): +0.020%
modifications in the bacterial community at genus level ([1]; differential abundance analysis, Cyclobutrifluram treatment): no significant modifications
relative abundance of the 14 ASVs found to be significantly changing ([1]; following cyclobutrifluram treatment): < 0.1%
response vs control in vivo at 0.15 mg/seed ([2]; Glycine max, soybean variety Toliman, seed treatment 0.15 mg ai/seed, mycorrhizal inoculant Blend A, relative to control, read-out: [%] arbuscular mycorrhizae fungi colonization vs. control.): 115%
level of mycorrhizal colonization in soybean roots (in words) ([2]; compared to control): higher colonization
changes into the soil microbiome community [3]: did not induce negative changes
